Assay results reported in ChEMBL document CHEMBL1132726, “Antioxidant activity and xanthine oxidase inhibition activity of reductic acid: ascorbic acid analogue” (Bioorg Med Chem Lett, 2000).

Assays:
[1] = biological target: T1, Xanthine dehydrogenase/oxidase (Bos taurus, UniProt P80457); test: Compound was tested for the inhibition of xanthine oxidase; Inactive
[2] = biological target: T1, Xanthine dehydrogenase/oxidase; test: Compound was tested for the inhibition of xanthine oxidase; Active

T1 sequence (P80457 whole entry): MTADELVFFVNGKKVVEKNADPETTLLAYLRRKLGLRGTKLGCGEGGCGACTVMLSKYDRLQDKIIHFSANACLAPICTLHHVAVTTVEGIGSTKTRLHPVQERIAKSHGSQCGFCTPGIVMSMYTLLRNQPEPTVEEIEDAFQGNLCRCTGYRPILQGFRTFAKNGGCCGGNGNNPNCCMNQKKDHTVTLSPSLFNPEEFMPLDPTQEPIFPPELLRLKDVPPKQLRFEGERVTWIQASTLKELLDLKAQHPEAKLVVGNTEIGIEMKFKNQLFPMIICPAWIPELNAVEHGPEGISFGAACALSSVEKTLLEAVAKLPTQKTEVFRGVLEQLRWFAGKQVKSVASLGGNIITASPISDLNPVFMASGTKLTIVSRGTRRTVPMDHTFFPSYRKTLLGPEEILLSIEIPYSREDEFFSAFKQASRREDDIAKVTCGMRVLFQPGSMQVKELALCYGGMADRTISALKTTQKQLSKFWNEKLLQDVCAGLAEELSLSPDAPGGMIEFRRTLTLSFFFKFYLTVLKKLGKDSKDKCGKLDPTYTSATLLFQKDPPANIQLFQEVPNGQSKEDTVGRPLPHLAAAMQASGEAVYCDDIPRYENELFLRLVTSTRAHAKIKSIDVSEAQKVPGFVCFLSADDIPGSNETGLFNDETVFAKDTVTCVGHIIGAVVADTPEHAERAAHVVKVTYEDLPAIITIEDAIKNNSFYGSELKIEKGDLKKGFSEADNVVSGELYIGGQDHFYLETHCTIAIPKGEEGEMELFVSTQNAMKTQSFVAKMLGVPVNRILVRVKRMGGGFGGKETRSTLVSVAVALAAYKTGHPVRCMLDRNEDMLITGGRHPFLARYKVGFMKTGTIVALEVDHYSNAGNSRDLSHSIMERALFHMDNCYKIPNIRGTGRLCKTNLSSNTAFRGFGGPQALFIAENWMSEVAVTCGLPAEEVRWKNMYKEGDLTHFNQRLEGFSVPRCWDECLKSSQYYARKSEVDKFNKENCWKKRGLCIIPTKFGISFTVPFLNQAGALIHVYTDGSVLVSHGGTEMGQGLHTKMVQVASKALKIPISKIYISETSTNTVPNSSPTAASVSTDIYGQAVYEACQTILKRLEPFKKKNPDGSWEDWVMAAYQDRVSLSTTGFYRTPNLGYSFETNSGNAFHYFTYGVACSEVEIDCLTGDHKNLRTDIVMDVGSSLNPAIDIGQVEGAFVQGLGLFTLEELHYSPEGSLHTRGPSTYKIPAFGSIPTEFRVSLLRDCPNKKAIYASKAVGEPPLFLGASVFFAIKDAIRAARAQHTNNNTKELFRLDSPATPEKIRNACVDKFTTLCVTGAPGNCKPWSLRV

Activity [1]	Activity [2]	SMILES
Not Active		O=C1COC(O)=C1O
	Active	O=C1CCC(O)=C1O
Not Active		O=C1O[C@H]([C@@H](O)CO)C(O)=C1O [ASCORBIC ACID]
